Data taken from publication PMC8079033, “Design, synthesis, anticancer evaluation, and molecular modelling studies of novel tolmetin derivatives as potential VEGFR-2 inhibitors and apoptosis inducers” (Journal of Enzyme Inhibition and Medicinal Chemistry, 2021).

Columns and labels:
renal (UO-31) cell line = test: MTT cytotoxicity assay; format: cell-based; conditions: Homo sapiens, mean ± SD of three experiments
colon (HCT-15) cell line = test: MTT cytotoxicity assay; format: cell-based; conditions: Homo sapiens, mean ± SD of three experiments
OVCAR-3 = test: NCI 60-cell line one-dose antiproliferative screen (SRB); format: cell-based; conditions: Homo sapiens, read-out: growth inhibition % (GI%)
Procedure, shortened: (§1)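 Values are GI% from a one-dose NCI DTP screen: compound at 10 µM, 48 h at 37 °C in 5% CO2, cell mass by SRB staining at 515 nm.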

NCI-H322M = test: as above; format: cell-based; conditions: Homo sapiens, read-out: growth inhibition % (GI%)
Procedure, shortened: as §1

EKVX = test: as above; format: cell-based; conditions: Homo sapiens, read-out: growth inhibition % (GI%)
Procedure, shortened: as §1

UO-31 = test: as above; format: cell-based; conditions: Homo sapiens, read-out: growth inhibition % (GI%)
Procedure, shortened: as §1

HS 578 T = test: as above; format: cell-based; conditions: Homo sapiens, read-out: growth inhibition % (GI%)
Procedure, shortened: as §1

Colo 205 = test: as above; format: cell-based; conditions: Homo sapiens, read-out: growth inhibition % (GI%)
Procedure, shortened: as §1

SK-MEL-28 = test: as above; format: cell-based; conditions: Homo sapiens, read-out: growth inhibition % (GI%)
Procedure, shortened: as §1

UACC-62 = test: as above; format: cell-based; conditions: Homo sapiens, read-out: growth inhibition % (GI%)
Procedure, shortened: as §1

NCI-H460 = test: as above; format: cell-based; conditions: Homo sapiens, read-out: growth inhibition % (GI%)
Procedure, shortened: as §1

SF-295 = test: as above; format: cell-based; conditions: Homo sapiens, read-out: growth inhibition % (GI%)
Procedure, shortened: as §1

KM12 = test: as above; format: cell-based; conditions: Homo sapiens, read-out: growth inhibition % (GI%)
Procedure, shortened: as §1

DU-145 = test: as above; format: cell-based; conditions: Homo sapiens, read-out: growth inhibition % (GI%)
Procedure, shortened: as §1

TK-10 = test: as above; format: cell-based; conditions: Homo sapiens, read-out: growth inhibition % (GI%)
Procedure, shortened: as §1

RPMI-8226 = test: as above; format: cell-based; conditions: Homo sapiens, read-out: growth inhibition % (GI%)
Procedure, shortened: as §1

MALME-3M = test: as above; format: cell-based; conditions: Homo sapiens, read-out: growth inhibition % (GI%)
Procedure, shortened: as §1

SK-OV-3 = test: as above; format: cell-based; conditions: Homo sapiens, read-out: growth inhibition % (GI%)
Procedure, shortened: as §1

SR = test: as above; format: cell-based; conditions: Homo sapiens, read-out: growth inhibition % (GI%)
Procedure, shortened: as §1

HOP-92 = test: as above; format: cell-based; conditions: Homo sapiens, read-out: growth inhibition % (GI%)
Procedure, shortened: as §1

SK-MEL-2 = test: as above; format: cell-based; conditions: Homo sapiens, read-out: growth inhibition % (GI%)
Procedure, shortened: as §1

A498 = test: as above; format: cell-based; conditions: Homo sapiens, read-out: growth inhibition % (GI%)
Procedure, shortened: as §1

HCC-2998 = test: as above; format: cell-based; conditions: Homo sapiens, read-out: growth inhibition % (GI%)
Procedure, shortened: as §1

U251 = test: as above; format: cell-based; conditions: Homo sapiens, U-251, read-out: growth inhibition % (GI%)
Procedure, shortened: as §1

HT29 = test: as above; format: cell-based; conditions: Homo sapiens, HT-29, read-out: growth inhibition % (GI%)
Procedure, shortened: as §1

NCI-H226 = test: as above; format: cell-based; conditions: Homo sapiens, read-out: growth inhibition % (GI%)
Procedure, shortened: as §1

UACC-257 = test: as above; format: cell-based; conditions: Homo sapiens, read-out: growth inhibition % (GI%)
Procedure, shortened: as §1

SW-620 = test: as above; format: cell-based; conditions: Homo sapiens, read-out: growth inhibition % (GI%)
Procedure, shortened: as §1

[1] = tested on: leukaemia HL-60 (TB) cell line; test: MTT cytotoxicity assay; format: cell-based; conditions: Homo sapiens, mean ± SD of three experiments
[2] = tested on: panel of 60 tumour cell lines; test: NCI 60-cell line one-dose screen, summary over the panel; format: cell-based, human; conditions: Homo sapiens, 60 cell, listed leukaemia, lung, colon, CNS, melanoma, ovarian, renal, breast lines, read-out: GI% range, potent growth inhibitory effects on the cell lines listed in the text
Description: Anticancer activity screening of the newly synthesised compounds was measured in vitro utilising 60 different human tumour cell lines provided by US National Cancer Institute according to previously reported standard procedure[41–43] as follows: Cells are inoculated into 96-well microtiter plates in 100 ml. After cell inoculation, the microtiter plates are incubated at 37 °C, 5% CO2, 95% air, and 100% relative humidity for 24 h prior to addition of experimental compounds. After 24 h, two plates of each cell line are fixed in situ with TCA, to represent a measurement of the cell population for each cell line at the time of compound addition (Tz). Experimental compounds are solubilised in dimethyl sulfoxide at 400-fold the desired final maximum test concentration and stored frozen prior to use. At the time of compound addition, an aliquot of frozen concentrate is thawed and diluted to twice the desired final maximum test concentration with a complete medium containing […] gentamicin. Aliquots of […] of the compounds dilutions are added to the appropriate microtiter wells already containing 100 ml of medium, resulting in the required final compound concentration. Following compound addition, the plates are incubated for an additional 48 h at 37 °C, 5% CO2, 95% air, and 100% relative humidity. […] The bound stain is subsequently solubilised with a 10 mM trizma base, and the absorbance is read on an automated plate reader at a wavelength of 515 nm. […] Using the absorbance measurements [time zero, (Tz), control growth, (C), and test growth in the presence of compound (Ti)], the percentage growth is calculated for each compound. […]
Fifteen newly synthesised compounds were tested for their in vitro antiproliferative activity by the National Cancer Institute (NCI), Maryland, USA[50], under the Developmental Therapeutic Program (DTP)[41]^,[43]^,[51]^,[52]. The tested compounds were evaluated at a concentration of 10 µM on a panel of 60 tumour cell lines representing leukaemia and non-small cell lung, colon, CNS, melanoma, ovarian, renal, prostate, and breast cancers. […]

Cc1ccc(C(=O)c2ccc(CC(=O)NN=Cc3cccc(O)c3O)n2C)cc1 [Compound 5b, N′-(2,3-Dihydroxybenzylidene)-2–(1-methyl-5–(4-methylbenzoyl)-1H-pyrrol-2-yl) acetohydrazide]
IC50 (renal (UO-31) cell line): 7.69 ± 0.41 µM
IC50 (colon (HCT-15) cell line): 6.62 ± 0.35 µM
inhibition at 10 µM (OVCAR-3): 76.5%
inhibition at 10 µM (NCI-H322M): 45.6%
inhibition at 10 µM (EKVX): 41.2%
inhibition at 10 µM (UO-31): 85.8%
inhibition at 10 µM (HS 578 T): 12.6%
inhibition at 10 µM (Colo 205): 37%
inhibition at 10 µM (SK-MEL-28): 20%
inhibition at 10 µM (UACC-62): 60.9%
inhibition at 10 µM (NCI-H460): 91.4%
inhibition at 10 µM (SF-295): 16.5%
inhibition at 10 µM (KM12): 55.8%
inhibition at 10 µM (DU-145): 50.7%
inhibition at 10 µM (TK-10): 61.2%
inhibition at 10 µM (RPMI-8226): 64.9%
inhibition at 10 µM (MALME-3M): 41.3%
inhibition at 10 µM (SK-OV-3): 32%
inhibition at 10 µM (SR): 91.1%
inhibition at 10 µM (HOP-92): 43.8%
inhibition at 10 µM (SK-MEL-2): < 10%
inhibition at 10 µM (A498): < 10%
inhibition at 10 µM (HCC-2998): 29.4%
inhibition at 10 µM (U251): 74%
inhibition at 10 µM (HT29): 13.3%
inhibition at 10 µM (NCI-H226): 31%
inhibition at 10 µM (UACC-257): 10.3%
inhibition at 10 µM (SW-620): 65.8%
IC50 [1]: 10.3 ± 0.55 µM
inhibition at 10 µM [2]: 60.9 to 95.9%
